Assay results from paper PMC10443802, “Targeting a xenobiotic transporter to ameliorate vincristine-induced sensory neuropathy” (JCI Insight, 2023).
“And” between values parts separate entries of the source, which are not always exact repeats. Identical values can stand only once.

Key:
hOATP1B3 = target: T1, hOATP1B3 (Homo sapiens, UniProt Q9NPD5); assay: Inhibition of vincristine uptake in HEK293 cells overexpressing hOATP1B3; settings: inhibitor 15 min pre-treatment
T1 sequence (Q9NPD5 1-702): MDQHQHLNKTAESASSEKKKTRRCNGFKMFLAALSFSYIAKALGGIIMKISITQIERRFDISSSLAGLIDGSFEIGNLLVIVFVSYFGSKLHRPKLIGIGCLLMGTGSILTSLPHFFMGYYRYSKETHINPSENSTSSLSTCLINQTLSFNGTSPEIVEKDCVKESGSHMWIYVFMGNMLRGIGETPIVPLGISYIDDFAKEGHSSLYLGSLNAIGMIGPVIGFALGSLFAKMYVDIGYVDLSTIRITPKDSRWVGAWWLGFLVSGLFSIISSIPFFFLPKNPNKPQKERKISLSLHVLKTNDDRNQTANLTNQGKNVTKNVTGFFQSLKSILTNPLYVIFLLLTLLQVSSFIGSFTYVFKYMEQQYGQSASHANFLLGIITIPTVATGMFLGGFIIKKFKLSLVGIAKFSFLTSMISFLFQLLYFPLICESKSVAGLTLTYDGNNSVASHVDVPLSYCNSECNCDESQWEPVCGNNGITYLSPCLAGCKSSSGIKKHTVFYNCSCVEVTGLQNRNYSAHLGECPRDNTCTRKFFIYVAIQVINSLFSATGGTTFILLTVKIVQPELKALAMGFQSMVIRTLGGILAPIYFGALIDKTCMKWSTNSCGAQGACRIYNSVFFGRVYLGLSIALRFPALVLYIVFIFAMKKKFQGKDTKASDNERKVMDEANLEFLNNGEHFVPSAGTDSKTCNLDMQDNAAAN

hOATP1A2 = hOATP1A2 (Homo sapiens, UniProt P46721); assay: Substrate uptake in HEK293 cells overexpressing hOATP1A2; settings: HEK293 OATP1A2
Sequence of hOATP1A2 (P46721 whole entry): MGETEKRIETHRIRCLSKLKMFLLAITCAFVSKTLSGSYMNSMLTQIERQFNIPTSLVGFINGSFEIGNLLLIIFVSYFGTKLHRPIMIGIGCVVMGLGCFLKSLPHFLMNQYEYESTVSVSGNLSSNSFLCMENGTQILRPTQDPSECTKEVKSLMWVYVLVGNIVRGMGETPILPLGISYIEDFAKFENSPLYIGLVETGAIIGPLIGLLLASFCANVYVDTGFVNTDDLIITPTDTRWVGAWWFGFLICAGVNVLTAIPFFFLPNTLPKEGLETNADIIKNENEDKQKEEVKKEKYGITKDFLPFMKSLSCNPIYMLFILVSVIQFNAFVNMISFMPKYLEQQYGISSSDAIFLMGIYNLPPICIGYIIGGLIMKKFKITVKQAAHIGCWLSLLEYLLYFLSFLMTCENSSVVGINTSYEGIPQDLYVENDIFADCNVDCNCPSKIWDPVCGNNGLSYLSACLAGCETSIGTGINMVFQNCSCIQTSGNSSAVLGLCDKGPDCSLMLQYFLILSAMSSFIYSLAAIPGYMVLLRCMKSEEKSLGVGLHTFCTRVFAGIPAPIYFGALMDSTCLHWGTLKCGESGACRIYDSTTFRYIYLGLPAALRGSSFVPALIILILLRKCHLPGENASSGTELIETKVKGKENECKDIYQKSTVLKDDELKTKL
Source text: transfected with transporters of interest, including hOAT1, hOAT3, hOAT4, hOATP1A2, hOATP3A1, hOATP4A1, hOATP5A1, hOATP1C1, hOATP1B1, hOATP1B3, hOATP2B1, hOCT1, hOCT2, hOCTN1, hOCTN2, hASBT, hNTCP, hNPT1, hMATE1, hOSTα/β, hPEPT1, hPEPT2, rOatp1a1, rOatp1a4, rOatp1a5, rOatp1b2, rNtcp, rAsbt, rOat1, and rOct1. Cells were transfected with expression plasmid or vector control lacking any insert using Lipofectin reagent (Invitrogen). Sixteen hours thereafter, cells were washed with transport media (OPTIMEM, Invitrogen) and treated with radiolabeled drug. At various time intervals, cells were washed three times with ice-cold PBS and then lysed with 1% sodium dodecyl sulfate. The cellular radioactivity was quantified by liquid scintillation counting as described above. Similar analyses were performed in HEK293 cells transfected with hOATP1A2, hOATP1C1, mMATE1, and hMATE1, with cells seeded in poly lysine pre-coated 12-well plates. For hOATP1A2 and hOATP1C1, transient transfections were performed with either an empty vector, OATP1A2, or OATP1C1 using Lipofectamine 2000 according to the manufacturers protocol (Invitrogen). At 48 h post transfection, […]
Samples were analyzed using real-time quantitative PCR and Taqman Probes (Applied Biosystems). The relative gene expression was determined using the ΔΔCt method, and normalized to the mouse or human housekeeping gene, GAPDH. […]

hNPT1 = hNPT1 (Homo sapiens, UniProt Q14916); assay: Vincristine uptake screen, HeLa cells overexpressing hNPT1; format: in vitro ADME
Sequence of hNPT1 (Q14916 whole entry): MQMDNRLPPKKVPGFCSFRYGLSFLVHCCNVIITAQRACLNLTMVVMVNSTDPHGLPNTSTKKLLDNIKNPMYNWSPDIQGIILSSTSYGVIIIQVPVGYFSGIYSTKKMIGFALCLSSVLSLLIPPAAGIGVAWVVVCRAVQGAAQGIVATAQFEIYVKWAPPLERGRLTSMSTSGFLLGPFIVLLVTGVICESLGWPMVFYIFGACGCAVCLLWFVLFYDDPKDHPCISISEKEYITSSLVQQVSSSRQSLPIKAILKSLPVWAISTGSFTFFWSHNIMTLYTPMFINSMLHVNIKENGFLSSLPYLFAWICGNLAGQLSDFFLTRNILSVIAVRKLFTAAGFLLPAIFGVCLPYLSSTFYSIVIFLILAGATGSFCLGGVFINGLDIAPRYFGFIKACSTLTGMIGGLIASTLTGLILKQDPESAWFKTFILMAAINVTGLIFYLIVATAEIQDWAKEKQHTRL
Protocol: Relative uptake is expressed as percentage change compared with empty vector controls (n = 4–14 per group). […] Human OATP1B1 and OATP1B3 transporter–overexpressed cells were used as positive controls; empty vector controls were used as the negative control. […] Mechanical allodynia (C), thermal hyperalgesia (D), and sciatic nerve maximal action potential amplitudes (E) are expressed as percentage change relative to baseline values (n = 6–8 per group). Statistical analysis was performed using a 2-way ANOVA with Bonferroni’s post hoc test. **P < 0.01, ***P < 0.001, ****P < 0.0001, compared with baseline values. […] Data are shown as mean ± SEM. […]
transfected with transporters of interest, including hOAT1, hOAT3, hOAT4, hOATP1A2, hOATP3A1, hOATP4A1, hOATP5A1, hOATP1C1, hOATP1B1, hOATP1B3, hOATP2B1, hOCT1, hOCT2, hOCTN1, hOCTN2, hASBT, hNTCP, hNPT1, hMATE1, hOSTα/β, hPEPT1, hPEPT2, rOatp1a1, rOatp1a4, rOatp1a5, rOatp1b2, rNtcp, rAsbt, rOat1, and rOct1. Cells were transfected with expression plasmid or vector control lacking any insert using Lipofectin reagent (Invitrogen). Sixteen hours thereafter, cells were washed with transport media (OPTIMEM, Invitrogen) and treated with radiolabeled drug. […] The cellular radioactivity was quantified by liquid scintillation counting as described above. […]

Structure (SMILES) | Vincristine uptake (% of vehicle) (hOATP1B3) | Contribution of transporter to cellular uptake of vincristine (hOATP1A2) | Vincristine uptake (% of vector control) (hNPT1)
Cc1cn(-c2cc(NC(=O)c3ccc(C)c(Nc4nccc(-c5cccnc5)n4)c3)cc(C(F)(F)F)c2)cn1 [Nilotinib, nilotinib] | 56.9618 % of vehicle and 79.3107 % of vehicle and 46.7964 % of vehicle and 63.7354 % of vehicle and 65.1694 % of vehicle and 69.9849 % of vehicle |  | 
CC[C@]1(O)C[C@H]2CN(CCc3c([nH]c4ccccc34)[C@@](C(=O)OC)(c3cc4c(cc3OC)N(C=O)[C@H]3[C@@](O)(C(=O)OC)[C@H](OC(C)=O)[C@]5(CC)C=CCN6CC[C@]43[C@@H]65)C2)C1 [Vincristine, vincristine] |  | do not appreciably contribute to the cellular uptake of vincristine | 120.00 % of vector control and 91.00 % of vector control and 99.00 % of vector control and 72.00 % of vector control and 100.00 % of vector control and 104.00 % of vector control and 113.00 % of vector control
